In patent US11091488B2 (MISSION THERAPEUTICS LIMITED, priority 2015, dated 2021):

Target: USP30 (Homo sapiens (Human), UniProt Q70CQ3)
Assay: USP30 biochemical IC50 assay
Details: read-out: IC50 range; fluorescence polarisation, TAMRA labelled peptide linked to ubiquitin; 30 min pre-incubation, read after 2 hr
Method: USP30 Biochemical IC50 Assay
Dilution plates were prepared at 21 times the final concentration (2100 μM for a final concentration of 100 μM) in 50% DMSO in a 96-well polypropylene V-bottom plate (Greiner #651201). A typical 8-point dilution series to be 100, 30, 10, 3, 1, 0.3, 0.1, 0.03 μM final. Reactions were performed in duplicate in black 384 well plates (small volume, Greiner 784076) in a final reaction volume of 21 μl. Either 1 μl of 50% DMSO or diluted compound was added to the plate. USP30 was diluted in reaction buffer (40 mM Tris, pH 7.5, 0.005% Tween 20, 0.5 mg/ml BSA, 5 mM—beta-mercaptoethanol) to the equivalent of 0.05 μl/well and 10 μl of diluted USP30 was added to the compound. Enzyme and compound were incubated for 30 min at room temp. Reactions were initiated by the addition of 50 nM of TAMRA labelled peptide linked to ubiquitin via an iso-peptide bond as fluorescence polarisation substrate. Reactions were read immediately after addition of substrate and following a 2 hr incubation at room temperature. Readings were performed on a Pherastar Plus (BMG Labtech). λ Excitation 540 nm; λ Emission 590 nm.

Sequence of USP30 (Q70CQ3 57-517): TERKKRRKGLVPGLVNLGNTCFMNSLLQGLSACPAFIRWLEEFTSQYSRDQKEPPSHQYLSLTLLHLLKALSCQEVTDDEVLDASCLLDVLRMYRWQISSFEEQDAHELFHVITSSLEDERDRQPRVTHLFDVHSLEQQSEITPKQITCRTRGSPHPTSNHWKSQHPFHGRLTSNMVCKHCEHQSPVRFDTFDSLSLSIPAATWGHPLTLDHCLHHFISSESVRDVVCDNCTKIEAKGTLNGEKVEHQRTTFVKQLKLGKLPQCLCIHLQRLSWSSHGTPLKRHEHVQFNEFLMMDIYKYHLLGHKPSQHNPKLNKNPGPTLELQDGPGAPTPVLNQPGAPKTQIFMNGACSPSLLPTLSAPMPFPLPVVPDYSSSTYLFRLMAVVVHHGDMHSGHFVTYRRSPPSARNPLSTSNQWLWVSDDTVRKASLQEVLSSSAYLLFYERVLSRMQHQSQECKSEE

| SMILES | IC50 [nM] |
| --- | --- |
| N#CN1CC[C@@H](NS(=O)(=O)Nc2ccc3nc(C(F)(F)F)[nH]c3c2)C1 [Example 45] | 1000 to 10000 |
| N#CN1CC[C@@H](N2CCCN(c3ccc4nc(C(F)(F)F)[nH]c4c3)S2(=O)=O)C1 [Example 46, (R)-3-(1,1-dioxido-6-(2-(trifluoromethyl)-1H-benzo[d]imidazol-6-yl)-1,2,6-thiadiazinan-2-yl)pyrrolidine-1-carbonitrile] | 1000 to 10000 |
| N#CN1CCC(NS(=O)(=O)Nc2cccc(-c3ccccc3)c2)C1 (stereo not drawn) [Example 57, N-biphenyl-3-yl-N′-(1-cyanopyrrolidin-3-yl)sulfuric diamide] | 100 to 1000 |
| N#CN1CCC(NS(=O)(=O)Nc2ccc(-c3ccccc3)cc2)C1 (stereo not drawn) [Example 58, N-biphenyl-4-yl-N′-(1-cyanopyrrolidin-3-yl)sulfuric diamide] | 100 to 1000 |
| N#CN1CCC(NS(=O)(=O)N2CCC(c3ccccc3)CC2)C1 (stereo not drawn) [Example 59, N-(1-cyanopyrrolidin-3-yl)-4-phenylpiperidine-1-sulfonamide] | 100 to 1000 |
| N#CN1CCC(NS(=O)(=O)N2CCN(c3ccccc3)CC2)C1 (stereo not drawn) [Example 60, N-(1-cyanopyrrolidin-3-yl)-4-phenylpiperazine-1-sulfonamide] | 100 to 1000 |
| N#CN1CCC(NS(=O)(=O)N2CCc3ccccc32)C1 (stereo not drawn) [Example 61, N-(1-cyanopyrrolidin-3-yl)indoline-1-sulfonamide] | 1000 to 10000 |
| N#CN1CC[C@@H](NS(=O)(=O)N2CCc3ccccc3C2)C1 [Example 62, (R)—N-(1-cyanopyrrolidin-3-yl)-3,4-dihydroisoquinoline-2(1H)-sulfonamide] | 1000 to 10000 |
| N#CN1CC[C@@H](NS(=O)(=O)N2CCc3cc(-c4ccccc4)ccc32)C1 [Example 63, (R)—N-(1-cyanopyrrolidin-3-yl)-5-phenylindoline-1-sulfonamide] | 100 to 1000 |
| N#CN1CC[C@@H](NS(=O)(=O)N2CCc3c(-c4ccccc4)cccc32)C1 [Example 64, (R)—N-(1-cyanopyrrolidin-3-yl)-4-phenylindoline-1-sulfonamide] | 100 to 1000 |
| COc1ccc2c(c1)CCN(S(=O)(=O)N[C@@H]1CCN(C#N)C1)C2 [Example 65, (R)—N-(1-cyanopyrrolidin-3-yl)-6-methoxy-3,4-dihydroisoquinoline-2(1H)-sulfonamide] | 100 to 1000 |
| CN1c2ccccc2N([C@@H]2CCN(C#N)C2)S1(=O)=O [Example 66, (R)-3-(3-methyl-2,2-dioxidobenzo[c][1,2,5]thiadiazol-1(3H)-yl)pyrrolidine-1-carbonitrile] | 1000 to 10000 |
| N#CN1CC[C@@H](N2c3ccccc3N(Cc3ccccc3)S2(=O)=O)C1 [Example 67, (R)-3-(3-benzyl-2,2-dioxidobenzo[c][1,2,5]thiadiazol-1(3H)-yl)pyrrolidine-1-carbonitrile] | 100 to 1000 |
| N#CN1CC[C@@H](N2c3ccccc3N(Cc3cccnc3)S2(=O)=O)C1 [Example 68, (R)-3-(2,2-dioxido-3-(pyridin-3-ylmethyl)benzo[c][1,2,5]thiadiazol-1(3H)-yl)pyrrolidine-1-carbonitrile] | 1000 to 10000 |
| N#CN1CC[C@@H](N2Cc3ccccc3N(Cc3ccccc3)S2(=O)=O)C1 [Example 69, (R)-3-(1-benzyl-2,2-dioxido-1,4-dihydro-3H-benzo[c][1,2,6]thiadiazin-3-yl)pyrrolidine-1-carbonitrile] | 100 to 1000 |
| Cn1cc(-c2ccc3c(c2)NS(=O)(=O)N([C@@H]2CCN(C#N)C2)C3)cn1 [Example 71, (R)-3-(7-(1-methyl-1H-pyrazol-4-yl)-2,2-dioxido-1,4-dihydro-3H-benzo[c][1,2,6]thiadiazin-3-yl)pyrrolidine-1-carbonitrile] | 100 to 1000 |
| N#CN1CC[C@@H](N2Cc3ccc(-c4ccccc4)cc3NS2(=O)=O)C1 [Example 72, (R)-3-(2,2-dioxido-7-phenyl-1,4-dihydro-3H-benzo[c][1,2,6]thiadiazin-3-yl)pyrrolidine-1-carbonitrile] | 100 to 1000 |
| CN1c2cc(-c3ccccc3)ccc2CN([C@@H]2CCN(C#N)C2)S1(=O)=O [Example 73, (R)-3-(1-methyl-2,2-dioxido-7-phenyl-1,4-dihydro-3H-benzo[c][1,2,6]thiadiazin-3-yl)pyrrolidine-1-carbonitrile] | 100 to 1000 |
| N#CN1CC[C@@H](N2Cc3cc(-c4ccccc4)ccc3NS2(=O)=O)C1 [Example 75, (R)-3-(2,2-dioxido-6-phenyl-1,4-dihydro-3H-benzo[c][1,2,6]thiadiazin-3-yl)pyrrolidine-1-carbonitrile] | 1000 to 10000 |
| CN(c1ccccc1)S(=O)(=O)N(C)C1CCN(C#N)C1 (stereo not drawn) [Example 76, N-(1-cyanopyrrolidin-3-yl)-N,N′-dimethyl-N′-phenylsulfuric diamide] | 1000 to 10000 |
| N#CN1CC[C@@H](N2Cc3cccc(N4CCOCC4)c3NS2(=O)=O)C1 [Example 77, (R)-3-(8-morpholino-2,2-dioxido-1,4-dihydro-3H-benzo[c][1,2,6]thiadiazin-3-yl)pyrrolidine-1-carbonitrile] | 1000 to 10000 |

Now from value to molecule:

| IC50 [nM] | SMILES |
| --- | --- |
| 100 to 1000 | C[C@H]1CN(C#N)C[C@@H]1N1CCN(c2cccc(N3CCOCC3)c2)S1(=O)=O [Example 41, (3S,4R)-3-methyl-4-(5-(3-morpholinophenyl)-1,1-dioxido-1,2,5-thiadiazolidin-2-yl)pyrrolidine-1-carbonitrile] |
| < 100 | COc1ccc(N2CCN([C@@H]3CCN(C#N)C3)S2(=O)=O)cc1-c1ccccc1 [Example 42, (R)-3-(5-(6-methoxy-[1,1′-biphenyl]-3-yl)-1,1-dioxido-1,2,5-thiadiazolidin-2-yl)pyrrolidine-1-carbonitrile] |
| 100 to 1000 | N#CN1CC[C@@H](N2CCN(c3ccc4nc(C(F)(F)F)[nH]c4c3)S2(=O)=O)C1 [Example 44, (R)-3-(1,1-dioxido-5-(2-(trifluoromethyl)-1H-benzo[d]imidazol-5-yl)-1,2,5-thiadiazolidin-2-yl)pyrrolidine-1-carbonitrile] |
| 100 to 1000 | N#CN1CC[C@H](N2CCN(c3cccc(-c4ccccn4)c3)S2(=O)=O)C1 [Example 47, (S)-3-(1,1-dioxido-5-(3-(pyridin-2-yl)phenyl)-1,2,5-thiadiazolidin-2-yl)pyrrolidine-1-carbonitrile] |
| 100 to 1000 | N#CN1CC[C@H](N2CCN(c3cccc(-c4cccnc4)c3)S2(=O)=O)C1 [Example 48, (S)-3-(1,1-dioxido-5-(3-(pyridin-3-yl)phenyl)-1,2,5-thiadiazolidin-2-yl)pyrrolidine-1-carbonitrile] |
| < 100 | N#CN1CC[C@@H](N2CCN(c3ccnc(N4CCOCC4)c3)S2(=O)=O)C1 [Example 50, (R)-3-(5-(2-morpholinopyridin-4-yl)-1,1-dioxido-1,2,5-thiadiazolidin-2-yl)pyrrolidine-1-carbonitrile] |
| 100 to 1000 | N#CN1CC[C@@H](N2CCN(c3nccc(N4CCOCC4)n3)S2(=O)=O)C1 [Example 51, (R)-3-(5-(4-morpholinopyrimidin-2-yl)-1,1-dioxido-1,2,5-thiadiazolidin-2-yl)pyrrolidine-1-carbonitrile] |
| 100 to 1000 | CN1CCN(c2cc(N3CCN([C@@H]4CCN(C#N)C4)S3(=O)=O)ccn2)CC1 [Example 52, (R)-3-(5-(2-(4-methylpiperazin-1-yl)pyridin-4-yl)-1,1-dioxido-1,2,5-thiadiazolidin-2-yl)pyrrolidine-1-carbonitrile] |
| 100 to 1000 | CO[C@@H]1CCN(c2cccc(N3CCN([C@@H]4CCN(C#N)C4)S3(=O)=O)c2)C1 [Example 53, (R)-3-(5-(3-((R)-3-methoxypyrrolidin-1-yl)phenyl)-1,1-dioxido-1,2,5-thiadiazolidin-2-yl)pyrrolidine-1-carbonitrile] |
| 100 to 1000 | CO[C@@H]1CCN(c2cc(N3CCN([C@@H]4CCN(C#N)C4)S3(=O)=O)ccn2)C1 [Example 54, (R)-3-(5-(2-((R)-3-methoxypyrrolidin-1-yl)pyridin-4-yl)-1,1-dioxido-1,2,5-thiadiazolidin-2-yl)pyrrolidine-1-carbonitrile] |
| 100 to 1000 | COC1CN(c2cc(N3CCN([C@@H]4CCN(C#N)C4)S3(=O)=O)ccn2)C1 [Example 55, (R)-3-(5-(2-(3-methoxyazetidin-1-yl)pyridin-4-yl)-1,1-dioxido-1,2,5-thiadiazolidin-2-yl)pyrrolidine-1-carbonitrile] |
| 100 to 1000 | COCCN(CCOC)c1cc(N2CCN([C@@H]3CCN(C#N)C3)S2(=O)=O)ccn1 [Example 56, (R)-3-(5-(2-(bis(2-methoxyethyl)amino)pyridin-4-yl)-1,1-dioxido-1,2,5-thiadiazolidin-2-yl)pyrrolidine-1-carbonitrile] |
